Experimental data published in US11564913B2, “Compositions and methods for treating cancer” (Children's Hospital Medical Center, priority 2019, dated 2023).

Assays:
[1] = system: murine p190-BCR-ABL leukemic progenitor cells (EGFP+/B220dim); assay: Cell cycle analysis, BrdU incorporation and flow cytometry; assay type: cell-based; details: for percentage of cells in the G2+M phases: 20 h (SD, N=3)
Description: FIG. 13: IODVA1 decreases Rac activation and signaling. (A) Ba/F3 cells expressing p190-BCR-ABL1 were treated with IODVA1 (3 μM) as indicated and levels of active Rac (Rac-GTP) were assessed by pull-down using GST-PAK-GBD, followed by immunoblotting (upper panel) and densitometric quantification (lower panel). (B) Flow-cytometry analysis of pJNK, pS6, p4EBP, pPAK1, and pAKT of Ba/F3 cells expressing Mieg3 empty vector (light and dark blue) or p190-BCR-ABL1 (light and dark salmon) and treated with vehicle control or IODVA1 (3 μM) for 30 min. (C) Representative histogram data of the cell cycle analysis of Ba/F3 cells expressing p190-BCR-ABL and treated with vehicle control or IODVA1 (1, 3, and 10 μM) for 20 h. (D) Quantification of the average number of colonies of bone marrow wild-type (black) and Rac1^Δ/Δ+Rac2^−/− (red) p190-BCR-ABL1 leukemic cells treated with vehicle control or IODVA1 (IO1, 1 μM). ns—not significant, * p<0.05, ** p<0.01, *** p<0.001. (E) As in FIG. 13A, but cells were incubated for a fixed amount of time (1 h) at the indicated IODVA1 concentrations. (F) Ba/F3 cells expressing p190-BCR-ABL1 were treated with IODVA1 (3 μM) and lysed at the indicated times. Cell lysates were separated on SDS-PAGE and immunoblotted for pPAK(T423), pBAD(S136), and BAD. (G) Ba/F3 cells expressing p190-BCR-ABL1 were treated with IODVA1 (3 μM) and levels of active Cdc42 (Cdc42-GTP) and Rho (Rho-GTP) were assessed by pull-down at the indicated times using GST-PAK-GBD and GST-Rhotekin respectively, followed by immunoblotting (left panel) and densitometric quantification (right panel). (H) Morphology of GFP^+ leukemic colonies (left panel). Western blot analysis of Rac1 and Rac2 protein expression in Rac1^Δ/Δ+Rac2^−/− cells post poly-I:C injections (right panel). (I) Intrinsic (blue line) and p50GAP-stimulated GTP-hydrolysis reaction in the presence (red line) or absence (black line) of IODVA1. (J) Sedimentation assay of liposomal Rac1-GDP in the presence of IODVA1 (2 μM). Rac1 was visualized by immunoblotting from pellet (p) and soluble (s) fractions. (K) Stopped-flow measurement of GDI (10 μM) interaction with fluorescently-labelled Rac1 in the absence (black line) or presence (orange line) of IODVA1.
To further test this hypothesis, we analyzed the cell cycle of murine p190-BCR-ABL leukemic progenitor cells (EGFP^+/B220^dim) incubated with vehicle control or IODVA1 (1-10 μM) for 20 h, followed by in vitro BrdU incorporation and flow cytometry analysis (FIG. 13C). […] It increased the percentage of cells in the G2+M phases from 7±1% (SD, N=3) in the presence of vehicle control to 22±6.6, 32±3, and 36±7% (SD, N=3) at 1, 3, and 10 μM, respectively. At 1 μM, it reduced the S-phase 8-fold (p=0.0002) and increased apoptosis by at least 5.3-times (p=0.007). Therefore, IODVA1 induces a G2/M arrest.
Cell cycle was analyzed by using in vitro incorporation of 5-Bromo-2-deoxyuridine using Brdu Flow kit (BD Pharmingen, Cat #552598). Briefly, mice leukemic progenitors were incubated with […] BrdU solution for 45 minutes, cells were further fixed and permeabilized. DNAse treatment was done according to the instructions and stained with anti BrdU and apoptosis was analyzed by 7-AAD staining through flow cytometry analysis.

[2] = system: MDA-MB-231 cells expressing scrambled shRNA; assay: Viability and proliferation, trypan blue exclusion; assay type: cell-based, human; details: 0.1-1 μM
[3] = system: active GTP-bound Ras in ST8814 cells; assay: Active Ras pull-down with GST-RafRBD; assay type: cell-based; details: 2 μM
Description: FIG. 4. IODVA1 inhibits proliferation of cancer model cells. (A) IODVA1 is a potent cell proliferation inhibitor. MCF10A, MCF7, MDA-MB-231, and T47D cells were grown in the presence of the indicated IODVA1 concentrations and counted for 4 or up to 7 days. Each dot and bar is the mean±stdev respectively, of 3 independent experiments, with 2 technical replicates in each experiment. (B) Number of colonies made by MCF7, T47D, and MDA-MB-231 cells at the indicated IODVA1 concentrations. Results shown are mean±stdev of 2 independent experiments with 4 technical replicates each. (C) IODVA1 deactivates Ras at late incubation times. […] Quantification summary of 2 independent experiments is presented in the graph. n.s.—not significant, *-p<0.05, **-p<0.01, ****-p<0.0001. (D) IODVA1 inhibits proliferation of ST8814 cells. ST8814 cells were grown in the presence of the indicated IODVA1 concentrations and counted daily for 4 days. Each dot and bar is the mean and standard deviation respectively, of 3 independent experiments.
To check if IODVA1 inhibits Ras activation in cells, applicants determined the levels of active-GTP-bound-Ras in ST88-14 cells treated with IODVA1 (2 μM) or vehicle control at various time points. GST-RafRBD bound glutathione-beads were incubated with ST8814 cell lysates, thoroughly washed, and the protein complex separated on SDS-PAGE. Levels of GTP-bound pan-RAS proteins bound to RafRBD were determined by immunoblotting.
Levels of active Ras, Rac, Cdc42 and RhoA were determined using the Active Ras Pull-Down and Detection Kit, Active Rac Pull-Down and Detection Kit (Thermo Scientific) and RhoA/Rac1/Cdc4 Pull-down Activation Assay Combo Biochem Kit (Cytoskeleton). Cells were cultured and treated as indicated and lysed in buffer provided by the manufacturer. […] Proteins were resolved by SDS-PAGE, transferred to nitrocellulose and the level of active GTPase relative to input lysate were determined by immunoblotting analysis using the anti-Ras, anti-Rac, anti-Cdc42, or anti-RhoA antibody supplied by the manufacturer.

## OC1(c2ccccn2)N=C(Nc2nc3ccccc3[nH]2)N=C1c1ccccn1 (stereo not shown) [IODVA1, (Z)-2-((1H-benzo[d]imidazol-2-yl)imino)-4,5-di(pyridin-2-yl)-2,5-dihydro-1H-imidazol-5-ol]
[1]; 1 μM, vehicle 7±1%
  percentage of cells in the G2+M phases: 22±6.6%
[1]; 1 μM, p=0.0002
  reduction of the S-phase: 8 fold
[1]; 1 μM, p=0.007
  increase in apoptosis: at least 5.3 times
[1]; 3 μM
  percentage of cells in the G2+M phases: 32±3%
[1]; 10 μM
  percentage of cells in the G2+M phases: 36±7%
[1]; 1-10 μM, 20 h
  G0+G1 phase: did not affect
[2]
  viability and proliferation: reduces, in a dose-dependent manner
[3]; 24 h
  levels of active Ras versus vehicle control: similar
[3]; 48 h
  levels of active Ras versus vehicle control: decrease in active Ras levels is seen
[3]; 72 h
  decrease in active Ras levels: very noticeable
